One assay has as its system serum CK. The experiment in a line: Serum CK levels, Phase 2 DMD study. To be noted: majority of subjects at 4-, 8-, 10-, 20-, 40-mg/kg dose levels (p=0.03, 0.002, 0.001). The format is in vivo, human. The procedure:
Serum CK activity is assessed using a commercially available NADH-linked kinetic assay (Diagnostic Chemicals Ltd., Oxford, Conn.). Serum CK levels are measured prior to treatment, on day 1 (prior to first dose), day 7, day 14, day 21, and day 27 during the treatment period, and on day 42 and day 56 after treatment. Serum CK is increased in Duchenne muscular dystrophy and therefore is a readily measurable diagnostic marker for the disease and may serve as a potential biomarker for the pharmacological activity of the drug (Mendell et al., 1989, New Eng. J. Med. 320(24):1592-1597).
Pre-treatment of primary muscle cells from 24 of the 26 boys in the first 2 cohorts were available for in vitro myotube culture. […] These changes were statistically significant (p=0.03, p=0.002, p=0.001 for low-, middle- and high doses, respectively). The return of mean values toward baseline upon cessation of treatment provided additional support for pharmacological activity.

Another assay deals with cough. The experiment in a line: Quantitative cough assessment (LifeShirt), mean cough frequency over 24 hours. Type of assay: in vivo, human. To be noted: FIG. 2; initial improvement, temporary increase, then overall improvement. The procedure:
FIG. 2 provides the effect on mean cough frequency over 24 hours by the administration of 3-[5-(2-fluoro-phenyl)-[1,2,4]oxadiazol-3-yl]-benzoic acid to a subject.
The VivoMetrics, Inc. LifeShirt® incorporates motion-sensing transducers, electrodes, a throat microphone, calibration bag, and a 3-axis accelerometer into a lightweight, washable vest that is available for patients≧5 years of age (see LifeShirt® Monitoring System QuickStart Guide, incorporated by reference herein in its entirety). Using integrated input from the motion sensors and microphone, the frequency and intensity of cough can be measured. […]
The device was used to obtain the data set forth in FIG. 2 and will be used to offer substantial supplementary data regarding the clinical benefits of 3-[5-(2-fluoro-phenyl)-[1,2,4]oxadiazol-3-yl]-benzoic acid during Phase 3 testing in CF. […] Without being limited by theory, based on the hypothesis that 3-[5-(2-fluoro-phenyl)-[1,2,4]oxadiazol-3-yl]-benzoic acid-mediated induction of CFTR function would reduce airway obstruction and inflammation, a decrease in cough frequency could serve as a symptomatic integration of these pharmacological effects and might offer a more accurate and quantitative assessment than verbal patient reporting.

Assay [1] concerns patients with nonsense-mutation-mediated cystic fibrosis. The experiment in a line: Pulmonary function tests (FEV1, FVC), Phase 2 cystic fibrosis study. The format is in vivo, human. The procedure:
Pulmonary function tests, including FEV1, FVC, and MEF25-75, are measured using standard spirometry procedures. Assessments of pulmonary function (including MEF25-75, FVC, and, particularly, FEV1) have been acknowledged as definitive clinical endpoints in patients with CF (Food and Drug Administration, 62nd Anti-Infective Drugs Advisory Committee. Discussion of NDA for tobramycin solution for inhalation (Tobi®) for the management of cystic fibrosis patients. November, 1997; Tiddens, 2002, Pediatr. Pulmonol. 34(3): 228-31). […] Pulmonary function testing is simple to administer (even in patients as young as 7 years of age), and uses standardized equipment and techniques that are widely available. Interpretation is performed using well-established normative equations that account for patient age, height, and gender.
3-[5-(2-Fluoro-phenyl)-[1,2,4]oxadiazol-3-yl]-benzoic acid was provided in a formulation described herein.
Clinical endpoints were evaluated using the procedures set forth above. TEPD measurements were made prior to treatment and on days 14 and 28 of Cycle 1 and Cycle 2. Nasal mucosal curettage was collected from each nostril of each patient prior to treatment and on days 14 and 28 of Cycle 1 and Cycle 2. Pulmonary tests, including FEV1, FVC and MEF25-75, were measured prior to treatment, on day −1 of Cycle 2, on day 13 or 14 of Cycle 1 and day 13 or 14 of Cycle 2 in the study being conducted in Israel and the same parameters were measured prior to treatment and on day 13 or 14 of Cycle 2 in the study being conducted in the United States.
Statistically significant results and positive trends for secondary endpoints were also observed. In particular, although the trials were not been powered to detect statistical significant changes in secondary endpoints, statistically significant improvements from study entry to the end of the higher-dose treatment cycle in the patients' mean FEV1, FVC and weight were observed.

The next assay relates to dystrophin. The experiment in a line: In vitro myotube culture of patients' primary muscle cells, dystrophin expression. The format is cell-based, human. The procedure:
Studies are performed on muscle tissue and skin from patients to determine whether dystrophin production in primary muscle cultures from the patients corresponds with dystrophin production in vivo. […] Correlations of skin cell response with clinical activity may offer an easy-to-obtain predictive test in selecting future patients for therapy or for screening new agents for the treatment of DMD. Cells are cultured as follows. Biopsy material is stored during transport in human proliferation medium (or PBS), and on ice for longer time periods if necessary. If the tissue is not prepared within 24 hours, the material can be frozen in human proliferation medium containing 10% DMSO and stored in liquid nitrogen (or dry ice). At the time the tissue is to be prepared for setting up the myoblast culture, biopsy material is washed in PBS. PBS sufficient to keep the tissue moist is added into a culture dish. The biopsy material is minced thoroughly with razor blades, toward an almost homogeneous suspension. Approximately 2 ml of collegenase/dispase/CaCl2 solution per gram of tissue is added and mincing is continued for several minutes (e.g. for a muscle biopsy of 5×5×5 mm use 1 ml of enzyme solution). […] The myogenic cell content of the culture is determined by performing a desmin-staining. […]

Setting [2] is: study entry to end of higher dose treatment.

These results are taken from patent US9226919B2, “Methods for dosing an orally active 1,2,4-oxadiazole” (PTC Therapeutics, Inc., priority 2006, dated 2016).

Regarding `O=C(O)c1cccc(-c2noc(-c3ccccc3F)n2)c1` [3-[5-(2-fluoro-phenyl)-[1,2,4]oxadiazol-3-yl]-benzoic acid], the “Serum CK, end-of-treatment versus pretreatment values” in the assay with serum CK is “decreases in CK”. For the same molecule, the “Mean cough frequency over 24 hours” value with cough is listed as “overall improvement in mean cough frequency”. In addition, the “Mean FEV1 (percentage of normal for gender, age and height), End of Higher Dose Treatment” value in assay [1] (end of higher-dose cycle (10, 10, 20 mg/kg TID), study entry 65.8%) is on record as 69.1%. The “Mean FVC (percentage of normal for gender, age and height), End of Higher Dose Treatment” value in assay [1] (end of higher-dose cycle (10, 10, 20 mg/kg TID), study entry 80.2%) is listed as 85.1%. Also, in assay [1] (setting [2]), the “Mean FEV1 (percentage of normal), Change” value stood at 3.3% and the “Mean FVC (percentage of normal), Change” value stood at 4.9%. Moreover, in the assay on dystrophin (cultured in the presence of the compound), the “Dystrophin expression in myotube cultures” value is on record as “dose-dependent increase in dystrophin expression”. In addition, the “In Vitro Expression Response (dystrophin)” value in the assay on dystrophin (myotube culture of pre-treatment primary muscle cells of individual DMD patients) is recorded as “Yes”.
